# Results published in ChEMBL document CHEMBL5143662, “Discovery of EP300/CBP histone acetyltransferase inhibitors through scaffold hopping of 1,4-oxazepane ring” (Bioorg Med Chem Lett, 2022).
# pIC50: −log10 of the molar value.
# Key:
# [1] = target: T1, Histone acetyltransferase p300 (Homo sapiens, UniProt Q09472); assay: Inhibition of N-terminal His tagged human EP300 (1159-1666 residues) expressed in Escherichia coli BL21 (DE3) using biotinylated H4 (1 to 25)-GSGSK peptide as substrate incubated for 1 hr by AlphaLISA assay
# T1 sequence (Q09472 whole entry, the tested form may be a part): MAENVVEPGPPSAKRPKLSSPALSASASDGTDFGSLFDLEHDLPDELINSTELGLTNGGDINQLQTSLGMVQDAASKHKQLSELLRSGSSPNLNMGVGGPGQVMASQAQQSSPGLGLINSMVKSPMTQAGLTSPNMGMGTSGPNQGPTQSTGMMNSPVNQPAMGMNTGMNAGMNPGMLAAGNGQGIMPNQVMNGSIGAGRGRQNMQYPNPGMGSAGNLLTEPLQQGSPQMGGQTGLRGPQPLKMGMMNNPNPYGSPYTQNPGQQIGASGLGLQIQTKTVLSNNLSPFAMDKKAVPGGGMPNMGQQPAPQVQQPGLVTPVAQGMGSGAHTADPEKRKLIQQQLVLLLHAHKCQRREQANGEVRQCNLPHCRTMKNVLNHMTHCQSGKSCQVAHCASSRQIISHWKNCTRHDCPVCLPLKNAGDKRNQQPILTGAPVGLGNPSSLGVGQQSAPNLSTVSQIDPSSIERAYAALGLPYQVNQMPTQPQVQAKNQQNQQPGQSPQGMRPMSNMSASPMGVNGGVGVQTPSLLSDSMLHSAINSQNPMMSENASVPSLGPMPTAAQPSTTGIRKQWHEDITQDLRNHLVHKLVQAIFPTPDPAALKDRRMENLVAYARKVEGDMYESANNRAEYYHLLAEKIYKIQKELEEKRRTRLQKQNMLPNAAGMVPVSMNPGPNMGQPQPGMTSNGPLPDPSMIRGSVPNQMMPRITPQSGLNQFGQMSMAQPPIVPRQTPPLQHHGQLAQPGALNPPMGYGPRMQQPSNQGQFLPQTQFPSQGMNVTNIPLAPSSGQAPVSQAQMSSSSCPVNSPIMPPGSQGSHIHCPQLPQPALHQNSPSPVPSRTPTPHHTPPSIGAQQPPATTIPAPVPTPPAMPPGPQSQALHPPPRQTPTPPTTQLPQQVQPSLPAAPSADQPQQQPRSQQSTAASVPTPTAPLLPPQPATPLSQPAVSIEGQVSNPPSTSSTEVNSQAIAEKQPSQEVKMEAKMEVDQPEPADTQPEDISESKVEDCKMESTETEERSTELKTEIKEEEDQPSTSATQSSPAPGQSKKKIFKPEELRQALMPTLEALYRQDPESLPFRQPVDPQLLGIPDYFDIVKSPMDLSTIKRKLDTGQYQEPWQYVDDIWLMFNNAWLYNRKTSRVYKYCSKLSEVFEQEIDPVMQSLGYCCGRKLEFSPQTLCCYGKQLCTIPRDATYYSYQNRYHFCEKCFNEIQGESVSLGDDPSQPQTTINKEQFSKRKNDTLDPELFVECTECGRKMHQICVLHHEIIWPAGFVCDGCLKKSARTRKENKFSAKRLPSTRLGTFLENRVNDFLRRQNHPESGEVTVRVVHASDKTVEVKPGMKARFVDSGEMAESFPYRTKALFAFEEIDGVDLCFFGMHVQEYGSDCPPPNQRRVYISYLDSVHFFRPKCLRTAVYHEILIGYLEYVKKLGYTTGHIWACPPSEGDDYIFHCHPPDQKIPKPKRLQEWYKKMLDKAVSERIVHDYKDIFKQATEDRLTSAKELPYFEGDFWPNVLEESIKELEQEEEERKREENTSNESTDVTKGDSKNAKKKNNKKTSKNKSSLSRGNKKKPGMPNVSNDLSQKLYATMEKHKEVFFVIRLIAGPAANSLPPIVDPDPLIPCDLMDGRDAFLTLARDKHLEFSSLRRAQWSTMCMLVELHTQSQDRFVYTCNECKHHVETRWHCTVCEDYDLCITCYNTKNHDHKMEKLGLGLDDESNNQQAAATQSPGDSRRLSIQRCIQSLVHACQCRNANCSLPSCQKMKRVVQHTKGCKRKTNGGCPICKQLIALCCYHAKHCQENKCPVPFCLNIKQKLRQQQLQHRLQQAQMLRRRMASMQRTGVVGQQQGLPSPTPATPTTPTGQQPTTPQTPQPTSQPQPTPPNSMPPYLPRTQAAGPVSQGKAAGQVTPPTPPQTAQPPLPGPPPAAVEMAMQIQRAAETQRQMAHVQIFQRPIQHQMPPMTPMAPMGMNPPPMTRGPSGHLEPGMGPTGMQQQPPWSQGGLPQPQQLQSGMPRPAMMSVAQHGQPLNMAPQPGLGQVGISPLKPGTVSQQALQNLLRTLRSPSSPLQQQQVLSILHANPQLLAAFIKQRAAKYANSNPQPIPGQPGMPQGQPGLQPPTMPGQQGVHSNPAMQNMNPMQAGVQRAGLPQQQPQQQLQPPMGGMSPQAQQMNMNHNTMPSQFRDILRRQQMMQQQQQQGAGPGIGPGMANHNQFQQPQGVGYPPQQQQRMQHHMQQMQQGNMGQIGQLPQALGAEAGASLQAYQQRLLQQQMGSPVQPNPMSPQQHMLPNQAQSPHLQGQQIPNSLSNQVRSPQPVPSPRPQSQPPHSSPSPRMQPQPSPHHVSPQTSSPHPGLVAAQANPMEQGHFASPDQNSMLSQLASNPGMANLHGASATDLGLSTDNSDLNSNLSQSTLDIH
# [2] = target: T1, Histone acetyltransferase p300; assay: Inhibition of EP300 in human LK2 cells assessed as reduction in intracellular histone H3 acetylation at lysine 27 residue incubated for 3 hrs by chemiluminescence based ELISA; type: cell-based
# [3] = Metabolic stability in mouse liver microsomes assessed as parent compound remaining measured after 0.5 hr; type: ADME, Microsome; details: read-out: Stability
# [4] = Inhibition of SOX2 mRNA expression in human LK2 cells incubated for 6 hrs by RT-qPCR analysis; type: functional, cell-based; details: LK-2, 6 h
# [5] = Solubility of the compound at pH 1.2; type: physicochemical; details: buffer
# [6] = Solubility of the compound at pH 6.8; type: physicochemical; details: buffer
# [7] = Lipophilicity, logD of compound; type: physicochemical; details: octanol/water
# [8] = Permeability of compound at pH 7.4 by PAMPA assay; type: ADME; details: read-out: permeability
# [9] = Permeability of compound at pH 5.0 by PAMPA assay; type: ADME; details: read-out: permeability
# [10] = Protein binding in mouse plasma assessed as unbound fraction; type: ADME, cell-free
# [11] = target: T2, CREB-binding protein (Homo sapiens, UniProt Q92793); assay: Inhibition of CBP (unknown origin) using biotinylated H4 (1 to […])-GSGSK peptide as substrate incubated for 1 hr by AlphaLISA assay
# Target sequence in this assay (Q92793 whole entry): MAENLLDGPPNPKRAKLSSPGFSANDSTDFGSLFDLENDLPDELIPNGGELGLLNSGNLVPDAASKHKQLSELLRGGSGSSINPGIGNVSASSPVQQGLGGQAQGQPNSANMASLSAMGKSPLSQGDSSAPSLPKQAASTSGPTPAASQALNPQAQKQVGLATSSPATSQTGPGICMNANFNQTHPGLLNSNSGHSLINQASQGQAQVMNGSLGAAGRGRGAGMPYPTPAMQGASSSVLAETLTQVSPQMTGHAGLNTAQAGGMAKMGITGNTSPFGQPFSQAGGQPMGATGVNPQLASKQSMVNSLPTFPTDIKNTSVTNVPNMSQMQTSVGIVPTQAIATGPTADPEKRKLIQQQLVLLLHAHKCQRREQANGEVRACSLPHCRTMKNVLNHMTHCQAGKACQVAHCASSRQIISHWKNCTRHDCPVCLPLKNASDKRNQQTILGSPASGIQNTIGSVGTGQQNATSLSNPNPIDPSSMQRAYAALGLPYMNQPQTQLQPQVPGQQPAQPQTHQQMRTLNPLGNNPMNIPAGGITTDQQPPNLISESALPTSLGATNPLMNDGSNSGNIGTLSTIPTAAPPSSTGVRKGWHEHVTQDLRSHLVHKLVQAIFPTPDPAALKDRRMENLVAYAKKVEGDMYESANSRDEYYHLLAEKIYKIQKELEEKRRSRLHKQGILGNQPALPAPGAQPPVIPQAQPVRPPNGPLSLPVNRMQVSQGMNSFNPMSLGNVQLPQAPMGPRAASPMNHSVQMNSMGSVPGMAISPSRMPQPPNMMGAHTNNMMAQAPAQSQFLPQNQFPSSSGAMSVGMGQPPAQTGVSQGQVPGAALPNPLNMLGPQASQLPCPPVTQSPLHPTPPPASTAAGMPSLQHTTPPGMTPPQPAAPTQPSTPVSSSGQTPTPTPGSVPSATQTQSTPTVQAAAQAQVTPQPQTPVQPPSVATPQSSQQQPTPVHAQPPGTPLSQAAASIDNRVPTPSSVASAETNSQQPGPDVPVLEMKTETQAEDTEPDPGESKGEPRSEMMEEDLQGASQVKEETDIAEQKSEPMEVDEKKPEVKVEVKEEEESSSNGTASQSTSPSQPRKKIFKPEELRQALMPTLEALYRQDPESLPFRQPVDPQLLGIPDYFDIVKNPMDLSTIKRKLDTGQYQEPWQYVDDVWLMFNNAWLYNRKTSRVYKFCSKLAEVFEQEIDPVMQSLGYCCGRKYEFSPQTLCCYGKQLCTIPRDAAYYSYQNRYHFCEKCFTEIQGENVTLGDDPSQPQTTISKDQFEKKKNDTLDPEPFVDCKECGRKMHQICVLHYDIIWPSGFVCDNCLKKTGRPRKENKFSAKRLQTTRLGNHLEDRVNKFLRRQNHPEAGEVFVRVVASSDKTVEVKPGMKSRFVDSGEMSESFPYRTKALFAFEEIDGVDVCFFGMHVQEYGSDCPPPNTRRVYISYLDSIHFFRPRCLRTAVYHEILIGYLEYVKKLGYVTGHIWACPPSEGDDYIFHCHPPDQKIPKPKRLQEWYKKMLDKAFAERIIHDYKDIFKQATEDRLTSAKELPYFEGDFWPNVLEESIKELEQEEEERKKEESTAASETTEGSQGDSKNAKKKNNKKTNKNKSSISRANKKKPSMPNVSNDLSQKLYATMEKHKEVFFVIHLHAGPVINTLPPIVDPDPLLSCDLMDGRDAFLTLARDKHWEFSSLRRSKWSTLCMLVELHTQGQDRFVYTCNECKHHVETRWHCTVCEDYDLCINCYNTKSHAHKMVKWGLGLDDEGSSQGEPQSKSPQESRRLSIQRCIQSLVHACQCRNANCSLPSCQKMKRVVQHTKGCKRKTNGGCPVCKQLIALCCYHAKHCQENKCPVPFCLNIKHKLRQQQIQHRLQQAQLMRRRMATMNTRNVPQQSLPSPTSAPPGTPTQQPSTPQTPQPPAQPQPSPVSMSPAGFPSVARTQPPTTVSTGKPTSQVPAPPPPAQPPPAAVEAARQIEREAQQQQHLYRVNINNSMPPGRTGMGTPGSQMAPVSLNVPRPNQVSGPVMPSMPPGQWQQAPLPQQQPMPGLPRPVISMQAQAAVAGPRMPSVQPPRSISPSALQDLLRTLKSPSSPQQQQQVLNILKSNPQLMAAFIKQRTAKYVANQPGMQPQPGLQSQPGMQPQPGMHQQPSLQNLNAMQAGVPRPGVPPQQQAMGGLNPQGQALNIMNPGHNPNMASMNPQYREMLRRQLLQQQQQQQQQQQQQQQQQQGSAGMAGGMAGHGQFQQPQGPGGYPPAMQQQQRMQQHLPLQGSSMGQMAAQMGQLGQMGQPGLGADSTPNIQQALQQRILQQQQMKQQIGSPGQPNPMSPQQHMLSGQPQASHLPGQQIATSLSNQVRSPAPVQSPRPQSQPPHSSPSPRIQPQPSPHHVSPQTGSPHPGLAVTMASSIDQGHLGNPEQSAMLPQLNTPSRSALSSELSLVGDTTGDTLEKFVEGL
# [12] = system: LK-2; assay: Antitumor activity against human LK2 cells xenografted in BALB/c nude mouse assessed as suppression of SOX2 mRNA level in […] at 50 to 200 mg/kg, po and measured after 6 hrs by qRT-PCR analysis relative to GADPH; type: functional, organism-based; details: dose 50-200 mg/kg, DDE = dose-dependent effect
# [13] = system: LK-2; assay: Antitumor activity against human LK2 cells xenografted in BALB/c nude mouse assessed as suppression of SOX2 mRNA level in tumor at 50 to 200 mg/kg, po and measured after 6 hrs by qRT-PCR analysis relative to GADPH; type: functional, organism-based; details: dose 50-200 mg/kg, DDE = dose-dependent effect
# [14] = target: Histone acetyltransferase KAT5 (Homo sapiens, UniProt Q92993); assay: Inhibition of GST tagged human TIP60 expressed in Sf9 cells using biotinylated H4 (1 to 25)-GSGSK peptide as substrate incubated for 1 hr by AlphaLISA assay
# [15] = target: Histone acetyltransferase KAT7 (Homo sapiens, UniProt O95251); assay: Inhibition of MYST2 (unknown origin) using biotinylated H4 (1 to […])-GSGSK peptide as substrate incubated for 1 hr by AlphaLISA assay
# [16] = target: Histone acetyltransferase KAT6B (Homo sapiens, UniProt Q8WYB5); assay: Inhibition of MYST4 (unknown origin) using biotinylated H4 (1 to […])-GSGSK peptide as substrate incubated for 1 hr by AlphaLISA assay
# [17] = target: Histone acetyltransferase KAT2B (Homo sapiens, UniProt Q92831); assay: Inhibition of GST tagged human PCAF (431 to end residues) expressed in Sf9 cells using biotinylated H3 (1 to 21)-GGK peptide as substrate incubated for 1 hr by AlphaLISA assay
# [18] = target: Histone acetyltransferase KAT2A (Homo sapiens, UniProt Q92830); assay: Inhibition of GST tagged human GCN5 (323 to end residues) expressed in Sf9 cells using biotinylated H3 (1 to 21)-GGK peptide as substrate incubated for 1 hr by AlphaLISA assay
# [19] = target: T2, CREB-binding protein; assay: Inhibition of CBP (unknown origin) at 50 uM using biotinylated H4 (1 to 25)-GSGSK peptide as substrate incubated for 1 hr by AlphaLISA assay relative to control
SMILES,pIC50 [1],pIC50 [2],remaining at 0.5 h [3] [%],other results
COc1ccc(C2(C(=O)N3CCOCC(Cc4cccc5[nH]ncc45)C3)CCCCC2)cc1 (stereo not given),6.85,6.21,–,–
COc1ccc(C2(C(=O)N3C[C@H](O)C[C@@H]3C(=O)Nc3cccc4[nH]ncc34)CCCC2)cc1,–,5.99,47,–
COc1ccc(C2(C(=O)N3CCC[C@@H]3C(=O)Nc3cccc4[nH]ncc34)CCCCC2)cc1,6.77,6.38,–,–
COc1ccc(C2(C(=O)N3CCOCC(Cc4cccc5[nH]ncc45)C3)CCCC2)cc1 (stereo in doubt; 3),6.89,6.42,–,–
COc1ccc(C2(C(=O)N3CCC[C@@H]3C(=O)Nc3cccc4[nH]ncc34)CCCC2)cc1,6.74,–,10,–
"COc1ccc(C2(C(=O)N3CCOCC(Cc4cccc5[nH]ncc45)C3)CCCC2)cc1 (single isomer, unassigned; (+))",7.30,6.89,–,–
COc1ccc(C2(C(=O)N3CS(=O)(=O)C[C@@H]3C(=O)Nc3cccc4[nH]ncc34)CCCC2)cc1,6.82,6.35,37,pIC50 [4]: 6.15; solubility [5]: 63 µg/mL; solubility [6]: 50 µg/mL; logD [7]: 3.2; Papp [8]: > 50 ×10⁻⁶ cm/s; Papp [9]: > 50 ×10⁻⁶ cm/s; fraction unbound [10]: 0.952; pIC50 [11]: 7.40; Activity [12]: Dde; Activity [13]: Dde
COc1ccc(C2(C(=O)N3C[C@@H](O)C[C@@H]3C(=O)Nc3cccc4[nH]ncc34)CCCC2)cc1,6.04,5.84,57,–
COc1ccc(C2(C(=O)N3CCOCC(Cc4cccc5[nH]ncc45)C3)CCOCC2)cc1 (stereo not given),6.21,5.65,–,–
COc1ccc(C2(C(=O)N(C)CC(=O)Nc3cccc4[nH]ncc34)CCCCC2)cc1,6.72,6.00,–,–
COc1ccc(C2(C(=O)N(C)[C@H](C)C(=O)Nc3cccc4[nH]ncc34)CCCC2)cc1,6.66,5.30,–,–
COc1ccc(C2(C(=O)N3C[C@H](F)C[C@@H]3C(=O)Nc3cccc4[nH]ncc34)CCCC2)cc1,7.25,6.34,5,–
CC1=NN(c2ccc(C(=O)O)cc2)C(=O)/C1=C\c1ccc(-c2cc(C)c(C)cc2[N+](=O)[O-])o1,–,–,–,pIC50 [11]: < 4.30; pIC50 [14]: 4.43; pIC50 [15]: 5.11; pIC50 [16]: 4.68; pIC50 [17]: 4.41; pIC50 [18]: 4.32; inhibition [19]: 29%
"COc1ccc(C2(C(=O)N3CCOCC(Cc4cccc5[nH]ncc45)C3)CCCC2)cc1 (single isomer, unassigned; (-))",–,< 4.60,–,–
